Test results from patent publication US11459339B2, “Biaryl derivative, preparation method thereof and pharmaceutical application thereof” (Abbisko Therapeutics Co., Ltd., priority 2018, dated 2022).

How the values were obtained:
[1] = target: interaction between PD-1 and PD-L1 (Homo sapiens (Human), UniProt Q9NZQ7); test: PD1-PDL1 HTRF binding activity test (Cisbio PD-1/PD-L1 binding assay kit); details: read-out: PD1-PDL1 HTRF Binding Activity IC50
[2] = target: interaction between PD-1 and PD-L1 expressed on cell surfaces (Homo sapiens (Human), UniProt Q9NZQ7); test: Jurkat reporter gene cellular assay (Jurkat/NF-κB-luc/PD1 cells cocultured with Raji-PD-L1 cells, OKT-3 stimulation); type: cell-based; details: NF-κB-luc reporter activation fold, 6 hrs; read-out: Cell Activity EC50
Outline: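 Jurkat cells stably expressing human PD-1 and NF-κB-luciferase were cocultured with Raji cells stably expressing human PD-L1 under OKT-3 stimulation, with compound present. Luminescence was read after 6 h.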

Chain of interaction between PD-1 and PD-L1 (Q9NZQ7 19-238): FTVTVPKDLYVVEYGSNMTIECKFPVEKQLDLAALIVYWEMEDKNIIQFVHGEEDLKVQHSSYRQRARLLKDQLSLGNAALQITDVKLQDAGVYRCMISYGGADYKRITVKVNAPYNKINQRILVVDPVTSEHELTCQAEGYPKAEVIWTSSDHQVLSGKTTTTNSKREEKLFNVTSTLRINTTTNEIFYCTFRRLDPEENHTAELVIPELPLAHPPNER
Chain of interaction between PD-1 and PD-L1 expressed on cell surfaces (Q9NZQ7 19-290): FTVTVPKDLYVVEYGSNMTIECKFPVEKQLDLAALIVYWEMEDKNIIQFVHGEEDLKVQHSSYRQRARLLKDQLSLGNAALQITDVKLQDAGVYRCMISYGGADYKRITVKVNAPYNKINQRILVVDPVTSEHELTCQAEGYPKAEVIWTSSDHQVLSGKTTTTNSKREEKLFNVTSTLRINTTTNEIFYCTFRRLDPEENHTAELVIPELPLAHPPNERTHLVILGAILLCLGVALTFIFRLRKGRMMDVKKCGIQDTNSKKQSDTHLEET

Row | SMILES | IC50 [1] [nM] | EC50 [2] [nM]
1 | COc1cc(C(=O)Nc2cccc(-c3cccc(NC(=O)c4cc(OC)c(CNCCS(C)(=N)=O)cn4)c3C)c2C)ncc1CNCCS(C)(=N)=O (centres unmarked) [Example 88, N,N'-(2,2′-dimethyl-[1,1′-biphenyl]-3,3′-diyl)bis(4-methoxy-5-(((2-(S-methylsulfonimidoyl)ethyl)amino)methyl)picolinamide)] | 0.41 | 182
2 | COc1cc(C(=O)Nc2cccc(-c3cccc(NC(=O)c4cc(OC)c(CNCCN=S(C)(C)=O)cn4)c3C)c2C)ncc1CNCCN=S(C)(C)=O [Example 89, N,N'-(2,2′-dimethyl-[1,1′-biphenyl]-3,3′-diyl)bis(5-(((2-((dimethyl(oxo)λ^6-sulfaneylidene)amino)ethyl)amino)methyl)-4-methoxypicolinamide)] | 0.87 | 427
3 | COc1cc(C(=O)Nc2cccc(-c3cccc(NC(=O)c4cc(OC)c(CNCCN=S5(=O)CCCC5)cn4)c3C)c2C)ncc1CNCCN=S1(=O)CCCC1 [Example 90, N,N'-(2,2′-dimethyl-[1,1′-biphenyl]-3,3′-diyl)bis(4-methoxy-5-(((2-((1-oxidotetrahydro-1λ^6-thiophen-1-ylidene)amino)ethyl)amino)methyl)picolinamide)] | 0.36 | 131
4 | Cc1c(NC(=O)c2cc(C3CC3)c(CNCCO)cn2)cccc1-c1cccc(NC(=O)c2cc(C3CC3)c(CNCCO)cn2)c1C [Example 91, N,N'-(2,2′-dimethyl-[1,1′-biphenyl]-3,3′-diyl)bis(4-cyclopropyl-5-(((2-hydroxyethyl)amino)methyl)picolinamide)] | 0.16 | 39
5 | Cc1c(NC(=O)c2cc(C3CC3)c(CNC(CO)CO)cn2)cccc1-c1cccc(NC(=O)c2cc(C3CC3)c(CNC(CO)CO)cn2)c1C [Example 92, N,N′-(2,2′-dimethyl-[1,1′-biphenyl]-3,3′-diyl)bis(4-cyclopropyl-5-(((1,3-dihydroxypropan-2-yl)amino)methyl)picolinamide)] | 0.87 | 54.7
6 | CC(=O)NCCNCc1cnc(C(=O)Nc2cccc(-c3cccc(NC(=O)c4cc(C5CC5)c(CNCCNC(C)=O)cn4)c3C)c2C)cc1C1CC1 [Example 93, N,N'-(2,2′-dimethyl-[1,1′-biphenyl]-3,3′-diyl)bis(5-(((2-acetamidoethyl)amino)methyl)-4-cyclopropylpicolinamide)] | 1.49 | 104
7 | Cc1c(NC(=O)c2cc(C3CC3)c(CNCC3(O)CC3)cn2)cccc1-c1cccc(NC(=O)c2cc(C3CC3)c(CNCC3(O)CC3)cn2)c1C [Example 94, N,N'-(2,2′-dimethyl-[1,1′-biphenyl]-3,3′-diyl)bis(4-cyclopropyl-5-((((1-hydroxycyclopropyl)methyl)amino)methyl)picolinamide)] | 4.75 | 566
8 | Cc1c(NC(=O)c2cc(C3CC3)c(CN[C@H](C)CO)cn2)cccc1-c1cccc(NC(=O)c2cc(C3CC3)c(CN[C@H](C)CO)cn2)c1C [Example 95, N,N'-(2,2′-dimethyl-[1,1′-biphenyl]-3,3′-diyl)bis(4-cyclopropyl-5-((((R)-1-hydroxypropan-2-yl)amino)methyl)picolinamide)] | 2.02 | 125
9 | Cc1c(NC(=O)c2cc(C3CC3)c(CN[C@@H](C)CO)cn2)cccc1-c1cccc(NC(=O)c2cc(C3CC3)c(CN[C@@H](C)CO)cn2)c1C [Example 96, N,N'-(2,2′-dimethyl-[1,1′-biphenyl]-3,3′-diyl)bis(4-cyclopropyl-5-((((S)-1-hydroxypropan-2-yl)amino)methyl)picolinamide)] | 1.44 | 87
10 | Cc1c(NC(=O)c2cc(C3CC3)c(CNC3CCC[C@@H]3O)cn2)cccc1-c1cccc(NC(=O)c2cc(C3CC3)c(CN[C@H]3CCC[C@@H]3O)cn2)c1C (some centres unmarked) [Example 97] | 3.38 | 221
11 | Cc1c(NC(=O)c2cc(C3CC3)c(CN3CC(O)C3)cn2)cccc1-c1cccc(NC(=O)c2cc(C3CC3)c(CN3CC(O)C3)cn2)c1C [Example 98, N,N′-(2,2′-dimethyl-[1,1′-biphenyl]-3,3′-diyl)bis(4-cyclopropyl-5-((3-hydroxyazetidin-1-yl)methyl)picolinamide)] | 3.78 | 241

The next lines start with the values.

Row | IC50 [1] [nM] | EC50 [2] [nM] | SMILES
12 | 1.43 | 260 | Cc1c(NC(=O)c2cc(C3CC3)c(CN3CC(C)(O)C3)cn2)cccc1-c1cccc(NC(=O)c2cc(C3CC3)c(CN3CC(C)(O)C3)cn2)c1C [Example 99, N,N′-(2,2′-dimethyl-[1,1′-biphenyl]-3,3′-diyl)bis(4-cyclopropyl-5-((3-hydroxy-3-methylazetidin-1-yl)methyl)picolinamide)]
13 | 1.51 | 122 | Cc1c(NC(=O)c2cc(C3CC3)c(CN3CC[C@@H](O)C3)cn2)cccc1-c1cccc(NC(=O)c2cc(C3CC3)c(CN3CC[C@@H](O)C3)cn2)c1C [Example 100]
14 | 1.09 | 267 | Cc1c(NC(=O)c2cc(C3CC3)c(CN3CC[C@H](O)C3)cn2)cccc1-c1cccc(NC(=O)c2cc(C3CC3)c(CN3CC[C@H](O)C3)cn2)c1C [Example 101, N,N′-(2,2′-dimethyl-[1,1′-biphenyl]-3,3′-diyl)bis(4-cyclopropyl-5-(((S)-3-hydroxypyrrolidin-1-yl)methyl)picolinamide)]
15 | 3.61 | 194 | Cc1c(NC(=O)c2cc(C3CC3)c(CN3CCC(O)CC3)cn2)cccc1-c1cccc(NC(=O)c2cc(C3CC3)c(CN3CCC(O)CC3)cn2)c1C [Example 102, N,N′-(2,2′-dimethyl-[1,1′-biphenyl]-3,3′-diyl)bis(4-cyclopropyl-5-((4-hydroxypiperidin-1-yl)methyl)picolinamide)]
16 | 4.11 | 206 | Cc1c(NC(=O)c2cc(C3CC3)c(CNC3CC(O)C3)cn2)cccc1-c1cccc(NC(=O)c2cc(C3CC3)c(CN[C@H]3C[C@@H](O)C3)cn2)c1C (some centres unmarked) [Example 103, N,N′-(2,2′-dimethyl-[1,1′-biphenyl]-3,3′-diyl)bis(4-cyclopropyl-5-((((1s,3s)-3-hydroxycyclobutyl)amino)methyl)picolinamide)]
17 | 0.27 | 14.1 | Cc1c(NC(=O)c2cc(C3CC3)c(CN[C@H](CO)C(=O)O)cn2)cccc1-c1cccc(NC(=O)c2cc(C3CC3)c(CN[C@H](CO)C(=O)O)cn2)c1C [Example 105]
18 | 22.5 | 1260 | CCOC(=O)[C@@H](CO)NCc1cnc(C(=O)Nc2cccc(-c3cccc(NC(=O)c4cc(C5CC5)c(CN[C@H](CO)C(=O)OCC)cn4)c3C)c2C)cc1C1CC1 [Example 106, diethyl 2,2′-((((((2,2′-dimethyl-[1,1′-biphenyl]-3,3′-diyl)bis(azanediyl))bis (carbonyl))bis(4-cyclopropylpyridine-6,3-diyl))bis(methylene))bis(azanediyl)) (2R,2′R)-bis(3-hydroxypropanoate)]
19 | 15.2 | 753 | CCOC(=O)[C@H](CO)NCc1cnc(C(=O)Nc2cccc(-c3cccc(NC(=O)c4cc(C5CC5)c(CN[C@@H](CO)C(=O)OCC)cn4)c3C)c2C)cc1C1CC1 [Example 107, diethyl 2,2′-((((((2,2′-dimethyl-[1,1′-biphenyl]-3,3′-diyl)bis(azanediyl))bis(carbonyl))bis(4-cyclopropylpyridine-6,3-diyl))bis (methylene))bis(azanediyl))(2S,2′S)-bis (3-hydroxypropanoate)]
